Tests used:
Experiment in all cases: relative viability (nuclei count vs DMSO), 5 days (fraction); higher = more cells survive
Gemcitabine + Luminespib = compound: Nc1ccn([C@@H]2O[C@H](CO)[C@@H](O)C2(F)F)c(=O)n1 [Gemcitabine] + CCNC(=O)c1noc(-c2cc(C(C)C)c(O)cc2O)c1-c1ccc(CN2CCOCC2)cc1 [Luminespib] (partner 0.01 µM)
How it was run: (§1)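 Nuclei were stained with Hoechst during a one-step fixation (final 0.05% Triton X-100, 1% formaldehyde, 1 ug/ml Hoechst) carried out 5 days after dosing, then counted on 4× images. The cells, lung cancer lines in 1536-well plates, had been dosed by pin tool the day after seeding with one drug alone or a fixed anchor-drug dose plus five library-drug doses (not always all listed) in √10 steps. Relative viability is the nuclei count in treated wells divided by that in vehicle wells, and each value is the median of duplicate plates.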

Gemcitabine + Lapatinib = compound: Nc1ccn([C@@H]2O[C@H](CO)[C@@H](O)C2(F)F)c(=O)n1 [Gemcitabine] + CS(=O)(=O)CCNCc1ccc(-c2ccc3ncnc(Nc4ccc(OCc5cccc(F)c5)c(Cl)c4)c3c2)o1 [Lapatinib] (partner 2 µM)
How it was run: as §1

Gemcitabine + Decitabine = compound: Nc1ccn([C@@H]2O[C@H](CO)[C@@H](O)C2(F)F)c(=O)n1 [Gemcitabine] + Nc1ncn([C@H]2C[C@H](O)[C@@H](CO)O2)c(=O)n1 [Decitabine] (partner 2 µM)
How it was run: as §1

Gemcitabine + Olaparib = compound: Nc1ccn([C@@H]2O[C@H](CO)[C@@H](O)C2(F)F)c(=O)n1 [Gemcitabine] + O=C(c1cc(Cc2n[nH]c(=O)c3ccccc23)ccc1F)N1CCN(C(=O)C2CC2)CC1 [Olaparib] (partner 8 µM)
How it was run: as §1

RERF-LC-KJ
relative viability (Gemcitabine + Luminespib; first compound 0.001 µM): 1.17 | relative viability (Gemcitabine + Luminespib; first compound 0.003162 µM): 1.45 | relative viability (Gemcitabine + Luminespib; first compound 0.01 µM): 1.13 | relative viability (Gemcitabine + Luminespib; first compound 0.03162 µM): 0.458 | relative viability (Gemcitabine + Luminespib; first compound 0.1 µM): 0.319 | relative viability (Gemcitabine + Lapatinib; first compound 0.001 µM): 0.858 | relative viability (Gemcitabine + Lapatinib; first compound 0.003162 µM): 0.821 | relative viability (Gemcitabine + Lapatinib; first compound 0.01 µM): 0.89 | relative viability (Gemcitabine + Lapatinib; first compound 0.03162 µM): 0.909 | relative viability (Gemcitabine + Lapatinib; first compound 0.1 µM): 0.407 | relative viability (Gemcitabine + Decitabine; first compound 0.001 µM): 0.831 | relative viability (Gemcitabine + Decitabine; first compound 0.003162 µM): 0.701 | relative viability (Gemcitabine + Decitabine; first compound 0.01 µM): 0.636 | relative viability (Gemcitabine + Decitabine; first compound 0.03162 µM): 0.529 | relative viability (Gemcitabine + Decitabine; first compound 0.1 µM): 0.324 | relative viability (Gemcitabine + Olaparib; first compound 0.001 µM): 1 | relative viability (Gemcitabine + Olaparib; first compound 0.003162 µM): 0.87 | relative viability (Gemcitabine + Olaparib; first compound 0.01 µM): 0.804 | relative viability (Gemcitabine + Olaparib; first compound 0.03162 µM): 0.389 | relative viability (Gemcitabine + Olaparib; first compound 0.1 µM): 0.293

LOU-NH91
relative viability (Gemcitabine + Luminespib; first compound 0.001 µM): 0.322 | relative viability (Gemcitabine + Luminespib; first compound 0.003162 µM): 0.322 | relative viability (Gemcitabine + Luminespib; first compound 0.01 µM): 0.339 | relative viability (Gemcitabine + Luminespib; first compound 0.03162 µM): 0.182 | relative viability (Gemcitabine + Luminespib; first compound 0.1 µM): 0.24 | relative viability (Gemcitabine + Lapatinib; first compound 0.001 µM): 0.733 | relative viability (Gemcitabine + Lapatinib; first compound 0.003162 µM): 0.72 | relative viability (Gemcitabine + Lapatinib; first compound 0.01 µM): 0.479 | relative viability (Gemcitabine + Lapatinib; first compound 0.03162 µM): 0.267 | relative viability (Gemcitabine + Lapatinib; first compound 0.1 µM): 0.276 | relative viability (Gemcitabine + Decitabine; first compound 0.001 µM): 0.801 | relative viability (Gemcitabine + Decitabine; first compound 0.003162 µM): 0.732 | relative viability (Gemcitabine + Decitabine; first compound 0.01 µM): 0.756 | relative viability (Gemcitabine + Decitabine; first compound 0.03162 µM): 0.562 | relative viability (Gemcitabine + Decitabine; first compound 0.1 µM): 0.41 | relative viability (Gemcitabine + Olaparib; first compound 0.001 µM): 0.92 | relative viability (Gemcitabine + Olaparib; first compound 0.003162 µM): 0.781 | relative viability (Gemcitabine + Olaparib; first compound 0.01 µM): 0.501 | relative viability (Gemcitabine + Olaparib; first compound 0.03162 µM): 0.223 | relative viability (Gemcitabine + Olaparib; first compound 0.1 µM): 0.264

NCI-H2347
relative viability (Gemcitabine + Luminespib; first compound 0.001 µM): 0.412 | relative viability (Gemcitabine + Luminespib; first compound 0.003162 µM): 0.513 | relative viability (Gemcitabine + Luminespib; first compound 0.01 µM): 0.302 | relative viability (Gemcitabine + Luminespib; first compound 0.03162 µM): 0.448 | relative viability (Gemcitabine + Luminespib; first compound 0.1 µM): 0.282 | relative viability (Gemcitabine + Lapatinib; first compound 0.001 µM): 0.952 | relative viability (Gemcitabine + Lapatinib; first compound 0.003162 µM): 0.896 | relative viability (Gemcitabine + Lapatinib; first compound 0.01 µM): 0.646 | relative viability (Gemcitabine + Lapatinib; first compound 0.03162 µM): 0.655 | relative viability (Gemcitabine + Lapatinib; first compound 0.1 µM): 0.467 | relative viability (Gemcitabine + Decitabine; first compound 0.001 µM): 0.537 | relative viability (Gemcitabine + Decitabine; first compound 0.003162 µM): 0.645 | relative viability (Gemcitabine + Decitabine; first compound 0.01 µM): 0.58 | relative viability (Gemcitabine + Decitabine; first compound 0.03162 µM): 0.478 | relative viability (Gemcitabine + Decitabine; first compound 0.1 µM): 0.539 | relative viability (Gemcitabine + Olaparib; first compound 0.001 µM): 0.603 | relative viability (Gemcitabine + Olaparib; first compound 0.003162 µM): 0.529 | relative viability (Gemcitabine + Olaparib; first compound 0.01 µM): 0.496 | relative viability (Gemcitabine + Olaparib; first compound 0.03162 µM): 0.383 | relative viability (Gemcitabine + Olaparib; first compound 0.1 µM): 0.373

NCI-H2126
relative viability (Gemcitabine + Luminespib; first compound 0.001 µM): 0.975 | relative viability (Gemcitabine + Luminespib; first compound 0.003162 µM): 0.828 | relative viability (Gemcitabine + Luminespib; first compound 0.01 µM): 0.773 | relative viability (Gemcitabine + Luminespib; first compound 0.03162 µM): 0.414 | relative viability (Gemcitabine + Luminespib; first compound 0.1 µM): 0.257 | relative viability (Gemcitabine + Lapatinib; first compound 0.001 µM): 0.704 | relative viability (Gemcitabine + Lapatinib; first compound 0.003162 µM): 0.764 | relative viability (Gemcitabine + Lapatinib; first compound 0.01 µM): 0.738 | relative viability (Gemcitabine + Lapatinib; first compound 0.03162 µM): 0.615 | relative viability (Gemcitabine + Lapatinib; first compound 0.1 µM): 0.394 | relative viability (Gemcitabine + Decitabine; first compound 0.001 µM): 0.604 | relative viability (Gemcitabine + Decitabine; first compound 0.003162 µM): 0.546 | relative viability (Gemcitabine + Decitabine; first compound 0.01 µM): 0.546 | relative viability (Gemcitabine + Decitabine; first compound 0.03162 µM): 0.423 | relative viability (Gemcitabine + Decitabine; first compound 0.1 µM): 0.299 | relative viability (Gemcitabine + Olaparib; first compound 0.001 µM): 0.888 | relative viability (Gemcitabine + Olaparib; first compound 0.003162 µM): 0.933 | relative viability (Gemcitabine + Olaparib; first compound 0.01 µM): 0.867 | relative viability (Gemcitabine + Olaparib; first compound 0.03162 µM): 0.562 | relative viability (Gemcitabine + Olaparib; first compound 0.1 µM): 0.262

HCC-827
relative viability (Gemcitabine + Luminespib; first compound 0.001 µM): 0.777 | relative viability (Gemcitabine + Luminespib; first compound 0.003162 µM): 0.365 | relative viability (Gemcitabine + Luminespib; first compound 0.01 µM): 0.386 | relative viability (Gemcitabine + Luminespib; first compound 0.03162 µM): 0.259 | relative viability (Gemcitabine + Luminespib; first compound 0.1 µM): 0.16 | relative viability (Gemcitabine + Lapatinib; first compound 0.001 µM): 0.181 | relative viability (Gemcitabine + Lapatinib; first compound 0.003162 µM): 0.177 | relative viability (Gemcitabine + Lapatinib; first compound 0.01 µM): 0.18 | relative viability (Gemcitabine + Lapatinib; first compound 0.03162 µM): 0.138 | relative viability (Gemcitabine + Lapatinib; first compound 0.1 µM): 0.126 | relative viability (Gemcitabine + Decitabine; first compound 0.001 µM): 0.333 | relative viability (Gemcitabine + Decitabine; first compound 0.003162 µM): 0.226 | relative viability (Gemcitabine + Decitabine; first compound 0.01 µM): 0.274 | relative viability (Gemcitabine + Decitabine; first compound 0.03162 µM): 0.166 | relative viability (Gemcitabine + Decitabine; first compound 0.1 µM): 0.186 | relative viability (Gemcitabine + Olaparib; first compound 0.001 µM): 0.673 | relative viability (Gemcitabine + Olaparib; first compound 0.003162 µM): 0.434 | relative viability (Gemcitabine + Olaparib; first compound 0.01 µM): 0.384 | relative viability (Gemcitabine + Olaparib; first compound 0.03162 µM): 0.0193 | relative viability (Gemcitabine + Olaparib; first compound 0.1 µM): 0.162

NCI-H3122
relative viability (Gemcitabine + Luminespib; first compound 0.001 µM): 0.1 | relative viability (Gemcitabine + Luminespib; first compound 0.003162 µM): 0.0845 | relative viability (Gemcitabine + Luminespib; first compound 0.01 µM): 0.0643 | relative viability (Gemcitabine + Luminespib; first compound 0.03162 µM): 0.0629 | relative viability (Gemcitabine + Luminespib; first compound 0.1 µM): 0.0705 | relative viability (Gemcitabine + Lapatinib; first compound 0.001 µM): 1.02 | relative viability (Gemcitabine + Lapatinib; first compound 0.003162 µM): 1.04 | relative viability (Gemcitabine + Lapatinib; first compound 0.01 µM): 0.926 | relative viability (Gemcitabine + Lapatinib; first compound 0.03162 µM): 0.476 | relative viability (Gemcitabine + Lapatinib; first compound 0.1 µM): 0.243 | relative viability (Gemcitabine + Decitabine; first compound 0.001 µM): 0.361 | relative viability (Gemcitabine + Decitabine; first compound 0.003162 µM): 0.396 | relative viability (Gemcitabine + Decitabine; first compound 0.01 µM): 0.389 | relative viability (Gemcitabine + Decitabine; first compound 0.03162 µM): 0.175 | relative viability (Gemcitabine + Decitabine; first compound 0.1 µM): 0.146 | relative viability (Gemcitabine + Olaparib; first compound 0.001 µM): 0.622 | relative viability (Gemcitabine + Olaparib; first compound 0.003162 µM): 0.625 | relative viability (Gemcitabine + Olaparib; first compound 0.01 µM): 0.396 | relative viability (Gemcitabine + Olaparib; first compound 0.03162 µM): 0.136 | relative viability (Gemcitabine + Olaparib; first compound 0.1 µM): 0.107

HOP-62
relative viability (Gemcitabine + Luminespib; first compound 0.001 µM): 0.968 | relative viability (Gemcitabine + Luminespib; first compound 0.003162 µM): 0.852 | relative viability (Gemcitabine + Luminespib; first compound 0.01 µM): 0.376 | relative viability (Gemcitabine + Luminespib; first compound 0.03162 µM): 0.107 | relative viability (Gemcitabine + Luminespib; first compound 0.1 µM): 0.106 | relative viability (Gemcitabine + Lapatinib; first compound 0.001 µM): 0.961 | relative viability (Gemcitabine + Lapatinib; first compound 0.003162 µM): 0.863 | relative viability (Gemcitabine + Lapatinib; first compound 0.01 µM): 0.301 | relative viability (Gemcitabine + Lapatinib; first compound 0.03162 µM): 0.0724 | relative viability (Gemcitabine + Lapatinib; first compound 0.1 µM): 0.0756 | relative viability (Gemcitabine + Decitabine; first compound 0.001 µM): 0.253 | relative viability (Gemcitabine + Decitabine; first compound 0.003162 µM): 0.172 | relative viability (Gemcitabine + Decitabine; first compound 0.01 µM): 0.16 | relative viability (Gemcitabine + Decitabine; first compound 0.03162 µM): 0.0888 | relative viability (Gemcitabine + Decitabine; first compound 0.1 µM): 0.121 | relative viability (Gemcitabine + Olaparib; first compound 0.001 µM): 0.516 | relative viability (Gemcitabine + Olaparib; first compound 0.003162 µM): 0.387 | relative viability (Gemcitabine + Olaparib; first compound 0.01 µM): 0.0703 | relative viability (Gemcitabine + Olaparib; first compound 0.03162 µM): 0.0534 | relative viability (Gemcitabine + Olaparib; first compound 0.1 µM): 0.0449

HCC-44
relative viability (Gemcitabine + Luminespib; first compound 0.001 µM): 1.07 | relative viability (Gemcitabine + Luminespib; first compound 0.003162 µM): 0.979 | relative viability (Gemcitabine + Luminespib; first compound 0.01 µM): 0.813 | relative viability (Gemcitabine + Luminespib; first compound 0.03162 µM): 0.261 | relative viability (Gemcitabine + Luminespib; first compound 0.1 µM): 0.226 | relative viability (Gemcitabine + Lapatinib; first compound 0.001 µM): 1.01 | relative viability (Gemcitabine + Lapatinib; first compound 0.003162 µM): 0.98 | relative viability (Gemcitabine + Lapatinib; first compound 0.01 µM): 0.897 | relative viability (Gemcitabine + Lapatinib; first compound 0.03162 µM): 0.477 | relative viability (Gemcitabine + Lapatinib; first compound 0.1 µM): 0.17 | relative viability (Gemcitabine + Decitabine; first compound 0.001 µM): 0.936 | relative viability (Gemcitabine + Decitabine; first compound 0.003162 µM): 0.918 | relative viability (Gemcitabine + Decitabine; first compound 0.01 µM): 0.901 | relative viability (Gemcitabine + Decitabine; first compound 0.03162 µM): 0.845 | relative viability (Gemcitabine + Decitabine; first compound 0.1 µM): 0.738 | relative viability (Gemcitabine + Olaparib; first compound 0.001 µM): 0.932 | relative viability (Gemcitabine + Olaparib; first compound 0.003162 µM): 0.988 | relative viability (Gemcitabine + Olaparib; first compound 0.01 µM): 0.931 | relative viability (Gemcitabine + Olaparib; first compound 0.03162 µM): 0.704 | relative viability (Gemcitabine + Olaparib; first compound 0.1 µM): 0.391

Reference: the supplement of paper PMC10307832
